The subject of assay [1] is valve endothelial cells (VEC). The assay can be described thus: EndMT in VEC: VE-cadherin, αSMA, SNAI1 by RT-PCR and immunofluorescence. It counts as cell-based, porcine. As to conditions: GM+TNFα 30 ng/mL, 48 h. On the procedure: Scale bar is 20 μm. […] Scale bar is […]. […] Arrows indicate cells coexpressing CD31 and αSMA. Scale bar is 100 μm. […] Asterisks indicate β-gal-positive cells in interstitial space. Scale bar is […]. CTL indicates control; GM, basal growth medium; and LDLR, low-density lipoprotein receptor.
3D Hydrogel Culture Model Preparation. Cellularized type II collagen hydrogels were prepared as previously described (Butcher et al., “Valvular Endothelial Cells Regulate the Phenotype of Interstitial Cells in Co-Culture: Effects of Steady Shear Stress,” Tissue Eng. 12:905-915 (2006), which is hereby incorporated by reference in its entirety)). Briefly, porcine aortic valve endothelial cells were topically seeded at 50,000 cell/cm^2 density, whereas porcine aortic valve interstitial cells were encapsulated within the neutralized collagen gel suspension (2 mg/mL) at 1,000,000 cells/mL density. Constructs were allowed to gel for 1 hour at 37° C., 5% CO2, and then cultured overnight in their respective basal-medium conditions. For osteogenic differentiation conditions, basal-medium was supplemented with 10 mmol/L β-glycerophosphate, 50 μg/mL 1-ascorbic acid, and 100 nM dexamethasone, as previously described (Richards et al., “Side-Specific Endothelial-Dependent Regulation of Aortic Valve Calcification: Interplay of Hemodynamics and Nitric Oxide Signaling,” Am J Pathol. 182:1922-1931 (2013), which is hereby incorporated by reference in its entirety). For exogenous TNFα administration, recombinant human TNFα was added to appropriate media condition before administration at 30 ng/mL.
Quantitative Real-Time Polymerase Chain Reaction. Total RNA was extracted using a RNeasy total RNA purification kit (Qiagen, Valencia, CA), and RNA was reverse transcribed to cDNA using the iScript cDNA synthesis kit (Bio-Rad, Hercules, CA). Quantitative RT-PCR was performed on all samples using SYBR Green PCR master mix (Applied Biosystems, Foster City, CA) and a CFX96 or MiniOpticon Real-Time PCR Detection System (Bio-Rad, Hercules, CA). Samples amplifying at >37 cycles were considered nondetectable.
For in vitro cultures, intact collagen gels were rinsed twice in PBS and fixed in 4% paraformaldehyde for 1 hour at 25° C. Samples were rinsed 3× on a rocker with PBS for 15 minutes each, permeabilized with 0.2% Triton-X (VWR International, West Chester, PA) for 10 minutes on rocker, and blocked in 10% goat serum for 1 hour at 25° C.

The test system of the next assay is Porcine aortic VEC. The assay can be described thus: VEC on 3D collagen hydrogels, calcification by Alizarin Red S staining and dye extraction. It counts as cell-based. As to conditions: OGM+TNFα 30 ng/mL, 14 days. From the text:
Primary Aortic Valve Cell Isolation and Culture. Porcine valves are a widely used analog for human adult valve endothelial and interstitial cells. Unlike mice, pigs develop atherosclerosis and valvular lesions without intervention, similar to humans. Large-scale culture of porcine valve cell populations is feasible due to ample tissue size/cell dissociation yields. […] Only VEC cultures with consistent CD31 and VE-cadherin (vascular endothelial cadherin) expression, cobblestone morphology, and nondetectable αSMA (alphasmooth muscle actin) expression were used. αSMA levels were measured via RT-PCR (>37 cycle threshold), Western blot, and immunofluorescence.
All reagents were obtained from Sigma Aldrich, St. Louis, MO, unless otherwise noted. […]
Hydrogel Calcification Analysis. To quantify calcified matrix developed in different experimental conditions, an Alizarin Red absorbance assay was implemented. […] The concentration of dye in solution was then quantified using absorbance spectroscopy at 405-nm wavelength. Samples absorbance readings were normalized to basal growth medium culture condition.

Another assay relates to NFκB p65. Description: p65 nuclear localization in VEC on 3D hydrogels (immunofluorescence). It counts as cell-based, porcine. As to conditions: 48 hour, OGM alone insufficient. On the procedure: White arrows indicate cells with nuclear-positive signal. Scale bar is 20 μm. […] Asterisks indicate statistically significant groups (*: p<0.05).
3D Hydrogel Culture Model Preparation. Cellularized type II collagen hydrogels were prepared as previously described (Butcher et al., “Valvular Endothelial Cells Regulate the Phenotype of Interstitial Cells in Co-Culture: Effects of Steady Shear Stress,” Tissue Eng. 12:905-915 (2006), which is hereby incorporated by reference in its entirety)). Briefly, porcine aortic valve endothelial cells were topically seeded at 50,000 cell/cm^2 density, whereas porcine aortic valve interstitial cells were encapsulated within the neutralized collagen gel suspension (2 mg/mL) at 1,000,000 cells/mL density. Constructs were allowed to gel for 1 hour at 37° C., 5% CO2, and then cultured overnight in their respective basal-medium conditions. For osteogenic differentiation conditions, basal-medium was supplemented with 10 mmol/L β-glycerophosphate, 50 μg/mL 1-ascorbic acid, and 100 nM dexamethasone, as previously described (Richards et al., “Side-Specific Endothelial-Dependent Regulation of Aortic Valve Calcification: Interplay of Hemodynamics and Nitric Oxide Signaling,” Am J Pathol. 182:1922-1931 (2013), which is hereby incorporated by reference in its entirety). […]

A further assay has as its target T1, RANKL (Mus musculus, UniProt O35235).
T1 construct: host or cells: hypercholesterolemic mice (in vivo, endogenous protein)
T1 sequence (O35235 1-316): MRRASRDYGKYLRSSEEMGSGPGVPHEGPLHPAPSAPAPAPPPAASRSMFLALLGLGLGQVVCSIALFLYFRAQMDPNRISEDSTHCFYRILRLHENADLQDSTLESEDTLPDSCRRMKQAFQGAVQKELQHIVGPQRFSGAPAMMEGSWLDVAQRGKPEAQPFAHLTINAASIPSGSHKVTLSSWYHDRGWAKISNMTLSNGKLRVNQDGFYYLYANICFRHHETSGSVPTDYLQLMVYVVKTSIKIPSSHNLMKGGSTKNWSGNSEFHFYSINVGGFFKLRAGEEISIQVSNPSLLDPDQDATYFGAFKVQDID
As to conditions: literature (Weiss et al. 2013); cited from earlier work.

The subject of assay [2] is LDLR−/− mice, a CAVD mouse model. The assay can be described thus: Fibro-osteogenic gene profiling (Q-PCR) on aortic valve tissues. It counts as in vivo. As to conditions: 8 weeks treatment after 20 weeks high fat diet. On the procedure:
Animals. Mouse experiments were performed according to the guidelines of the National Institute of Health and the protocols approved by the Institutional Animal Care and Use Committee of Cornell University. The mice used were LDLR (low-density lipoprotein receptor)−/− mice from Jackson Labs (No. 2270). Mice were fed a high-fat diet (Harlan Teklad No. TD88137, 42% of calories from fat, 0.25% cholesterol). Age-matched C57BL6J mice were obtained from Jackson Laboratories (Bar Harbour, ME) for control study. Drug administration. The NFκB pathway was intervened by administering either BAY11-7082 (injected intraperitoneal 3 times per week at 5 mg/kg) or tetrahydrobiopterin (BH4) (oral gavage at 10 mg/kg/day) to LDLR/mice, for 8 weeks after giving them high fat diet for 20 weeks Q-PCR analysis. Mouse Aortic valve samples were homogenized, total RNA was isolated using Takarabio RNA, purified and further quantified via Nanodrop. […] Quantitative RT-PCR was performed on all samples using SYBR Green PCR master mix (Applied Biosystems, Foster City, CA) and a CFX96 or MiniOpticon Real-Time PCR Detection System (Bio-Rad, Hercules, CA). […] Cardiac hemodynamic parameters, such as aortic valve peak velocity and left ventricle ejection fraction, were measured using doppler ultrasound before and after BAYT 1-7082 and BH4 administration. […]

Assay [3] has the same test system. Description: Alizarin red staining for calcium contents on the aortic valves. It counts as in vivo. As to conditions: 8 weeks treatment after 20 weeks high fat diet. On the procedure: Animals. Mouse experiments were performed according to the guidelines of the National Institute of Health and the protocols approved by the Institutional Animal Care and Use Committee of Cornell University. The mice used were LDLR (low-density lipoprotein receptor)−/− mice from Jackson Labs (No. 2270). Mice were fed a high-fat diet (Harlan Teklad No. TD88137, 42% of calories from fat, 0.25% cholesterol). Age-matched C57BL6J mice were obtained from Jackson Laboratories (Bar Harbour, ME) for control study. Drug administration. The NFκB pathway was intervened by administering either BAY11-7082 (injected intraperitoneal 3 times per week at 5 mg/kg) or tetrahydrobiopterin (BH4) (oral gavage at 10 mg/kg/day) to LDLR/mice, for 8 weeks after giving them high fat diet for 20 weeks Tissue staining and immunohistochemistry. Mouse hearts were isolated, perfused, fixed, embedded in paraffin, sectioned, and mounted. Alizarin red staining (ARS). Sections were deparaffinized and incubated in ARS stain for 5 minutes (1% Alizarin red in water, pH 4.2 adjusted by using 10% ammonium hydroxide in water). Sections were incubated in acetone for 30 seconds and then rinsed with a 1:1 solution of acetone and xylene. […] Cardiac hemodynamic parameters, such as aortic valve peak velocity and left ventricle ejection fraction, were measured using doppler ultrasound before and after BAYT 1-7082 and BH4 administration. […]

Assay [4] relates to NFκB canonical signaling activity. As to conditions: acute cardiovascular injury, literature; cited from earlier work.
Assay [5] has as its system LDLR−/− mice, a CAVD mouse model. Description: Echocardiography (pulsed-wave Doppler) of heart valve function in CAVD mouse model. It counts as in vivo. How it is done: Animals. Mouse experiments were performed according to the guidelines of the National Institute of Health and the protocols approved by the Institutional Animal Care and Use Committee of Cornell University. The mice used were LDLR (low-density lipoprotein receptor)-/- mice from Jackson Labs (No. 2270). Mice were fed a high-fat diet (Harlan Teklad No. TD88137, 42% of calories from fat, 0.25% cholesterol). Age-matched C57BL6J mice were obtained from Jackson Laboratories (Bar Harbour, ME) for control study. Drug administration. The NFκB pathway was intervened by administering either BAY11-7082 (injected intraperitoneal 3 times per week at 5 mg/kg) or tetrahydrobiopterin (BH4) (oral gavage at 10 mg/kg/day) to LDLR/mice, for 8 weeks after giving them high fat diet for 20 weeks Echocardiography. Transthoracic echocardiography was performed under 2% isofluorane anaesthesia, with M[…] and MS5[…] probes connected to a Vevo 2100 system (VisualSonics). Heart valve function was assessed at 6 months and 8 months of age using according to established procedures. Mice were anesthetized using inhaled 2% isoflurane. Abdominal hair was removed using a chemical depilatory cream, and warmed ultrasound transmission gel was applied to the anterior thorax. Probes were applied in the long-axis and short-axis position to the chest. Transvalvular velocity and pressure gradients were captured using the pulsed-wave Doppler mode and manual tracing of >3 velocity time intervals on the resulting plots. In this work, the NFkB pathway was intervened by administering either BAY11-7082 (injected intraperitoneal 3 times per week at 5 mg/kg) or tetrahydrobiopterin (BH4) (oral gavage at 10 mg/kg/day) to LDLR^-/- mice, a CAVD mouse model, for another 8 weeks after starting them on high fat diet for 20 weeks (FIGS. 17A-17C). Cardiac hemodynamic parameters, such as aortic valve peak velocity and left ventricle ejection fraction, were measured using doppler ultrasound before and after BAYT 1-7082 and BH4 administration. […]

Setting [6] is: LDLR−/− mice on high fat diet, treatment from 6 months, read at 8 months, vs control LDLR−/− given 10% DMSO/PBS.

TNFα: in assay [1], the EndMT induction entry is reported as “induced EndMT”, the SNAI1 gene expression result is listed as “significantly increased”, the “VE-cadherin gene expression (CDH5)” value is on record as “reduction in gene expression” and the αSMA expression entry is “increased”. Further, the “calcium deposition (ARS)” value in the assay on Porcine aortic VEC is listed as “significantly increased”. Further, in the assay on NFκB p65, the p65 nuclear localization entry is listed as “required to induce p65 nuclear localization”.
As to “osteoprotegerin: decoy receptor for RANKL”, the CAVD calcification result with RANKL is “mitigates CAVD calcification”.
With `Cc1ccc(S(=O)(=O)/C=C/C#N)cc1` [BAY11-7082], in assay [2], the “collagen type 1A (Col1A) mRNA expression in aortic valve tissue” value is “significantly decreased” and the “intercellular adhesion molecule 1 (ICAM1) mRNA expression in aortic valve tissue” value is “significantly decreased”. Moreover, in assay [3], the “calcium deposition on the aortic valves (Alizarin red staining)” value is “less calcium deposition”. In assay [4], the “treatment of septic shock or ischemic reperfusion injury” value is “effective”. For the same compound, in assay [5] (setting [6]), the “aortic valve peak velocity” value was “lessened increase” and the “ejection fraction velocity ratio (EFVR)” value is “lessened”. The “hemodynamic effect by sex” value in assay [5] (female vs male LDLR−/− mice, 8 weeks treatment) was “significantly affected both female and male mice”.

The record behind these values is patent US20240216325A1, “NUCLEAR FACTOR KAPPA B PATHWAY INHIBITION TO ARREST CALCIFIC AORTIC STENOSIS” (CORNELL UNIVERSITY, priority 2019, published 2024).
